Test results published in patent US20090023755A1, “USE OF ISTRADEFYLLINE FOR TREATING BEHAVIORAL DISORDERS” (KYOWA HAKKO KOGYO CO., LTD., priority 2002, published 2009).

Assays:
[1] = tested on: 6-hydroxydopamine-treated neonatal rats; assay: Locomotor activity in 6-hydroxydopamine-treated neonatal rats; type: in vivo, rat
Method: Methods: Female neonatal SD rats were used for the experiments. 100 μg 6-Hydroxydopamine (6-HODA) was dissolved in a 0.1% solution of ascorbic acid in saline, and the obtained solution or 0.1% ascorbic acid in saline (control) was injected first at 3 days of age into the left lateral ventricle of the rat and secondly at 6 days of age into the right lateral ventricle of the rat. At 30-37 days, locomotor activity was measured by placing the rat in a transparent acrylic box (50×50×50 cm) 60 minutes after the drug administration using digital counters with infrared sensors (Scanet MV-10MT; Toyo Sangyo Co. Ltd., Toyama, Japan).
Compound (I) was suspended in a 0.3% aqueous Tween 80 solution, and administered orally to 6-HODA treated rats.

[2] = tested on: 6-hydroxydopamine-treated young rats; assay: Tic/Tourette like symptoms in 6-hydroxydopamine-treated young rats; type: in vivo, rat
Method: Methods: 6-HODA was injected into the left medial forebrain bundle of a rat to induce a unilateral lesion of dopaminergic neurons, followed by repeated oral administration of L-DOPA at 20 mg/kg twice daily for 2 weeks to make a rat model of tic-like symptoms.
Tic-like, abnormal involuntary movements were observed after day 3 during repetitive treatment with L-DOPA. Two subtypes of involuntary movements were classified as axial (lateral torsion of the head, neck and trunk towards the side contralateral to the lesion, including swing of the head) and forelimb (abnormal movements contralateral to the lesion, including kicking movements of the forelimb).
The severity of these movements was assigned a score from 0 to 4 to each movement as follows.
(score 0) no deviation of head
(score 1) lateral deviation of head: […]
(score 2) lateral deviation of head: more than 30°, and 60° or less
(score 3) torsion of head and upper trunk: more than 60°, and 90° or less
(score 4) torsion of head and trunk: more than 90°
(score 0) no movements of both distal and proximal forelimbs
(score 1) tiny oscillatory movements of the distal forelimb
(score 2) movements of low amplitude but causing visible translocation of both distal and proximal forelimbs
(score 3) translocation of the whole limb with visible contraction of shoulder muscles
(score 4) vigorous limb and shoulder movements of maximal amplitude
Compound (I) was repeatedly administered orally to 6-HODA treated rats at 1 mg/kg for 23 days, and Tic-like, abnormal involuntary movements were observed every 10 minutes for 3 hours, each time for one minute.
Peak score was obtained by adding the peak score for forelimb to that for axial (Data are expressed as mean±standard deviation in the following Table 1). Peak time means the time after the first administration when peak score was score observed.

[3] = tested on: dd-strain male mice; assay: Acute toxicity test; type: in vivo; conditions: oral administration, mortality seven days after administration
Excerpt: Compound (I) was orally or intraperitoneally administered to groups of dd-strain male mice weighing 20±1 g, each group consisting of three mice.

[4] = tested on: young rats; assay: Acquisition of a delayed alternation task in young rats; type: in vivo, rat; conditions: for Choice reaction times per session (mean ± s.e.m.) / Simple reaction times per session (mean ± s.e.m.): 0.3 mg/kg p.o. -60 min
Method: The following experiment was carried out according to a method described in Drug Dev. Res., 35, p. 83-95 (1996) with a slight modification. Methods: Male Rj: Wistar (Han) rats were used for the experiments. Before being tested, the rats were given the standard diet each day. Several 45 mg food pellets (these were also used in the delayed alternation sessions described below) were also given them to habituate them to this novel food.
The aim of this phase is to train rats, on the presentation of a single centralized retractable lever, to press on it to receive a food pellet.
The rats were subjected to 10 lever-pressing acquisition sessions in the experimental chambers according to a fixed ratio (FR1) schedule of reinforcement. Reinforcement consists of food pellets (45 mg) delivered after each lever-press. Each daily session lasts 15 minutes. All rats received an intraperitoneal administration of physiological saline 30 minutes before each session. During the first 7 sessions, the Skinner boxes were equipped with only one fixed lever situated centrally above the food receptacle, to avoid spatial preference for the right or the left side of the experimental panel. After the 7th lever-pressing session, the boxes were equipped with two retractable levers located on either side of the food receptacle. The rats were then subjected to 3 consecutive sessions in which the left or the right lever was pseudo-randomly presented every 5 seconds. At the end of this phase 80 to 100% of the rats acquired the lever press-response. […] If some rats were close to establishing steady lever-pressing behavior they were given extra training with the aim of attaining at least 10 rats per group. Rats were assigned to treatment groups matched on the basis of their performance.
Subsequent to lever-press acquisition sessions, all rats were subjected to delayed alternation sessions. The test was conducted for 5 days. During this phase, the boxes were equipped with two retractable levers on each side of the food distributor. Each session consisted of 35 successive trials every 10 seconds. In each trial, the rat was first presented with one lever (left or right). When the rat pressed on the lever, the rat was given a food pellet, the lever was retracted and 5 seconds later two levers were presented. The rat had to learn to press on the lever opposite to that previously presented to gain a food pellet (non-matching to sample).
Compound (I) was suspended in 0.5% methylcellulose in distilled water and administered orally 60 minutes before each session.
The effect of Compound (I) was evaluated by measuring simple reaction time, which means the reaction time to each one-lever presentation, and choice reaction time, which means the reaction time to each two-lever presentation.

[5] = 1 mg/kg orally, compared with before administration
[6] = 0.3 mg/kg orally, compared with vehicle control rats

For `CCn1c(=O)c2c(nc(/C=C/c3ccc(OC)c(OC)c3)n2C)n(CC)c1=O` [Compound (I), (E)-8-(3,4-dimethoxystyryl)-1,3-diethyl-7-methylxanthine], the locomotor activity ([1]; 6-HODA treated rats, 1.25 mg/kg orally, measured 60 minutes after administration) was “decreased locomotor activities”, the locomotor activity ([1]; 6-HODA treated rats, 5 mg/kg orally, measured 60 minutes after administration) was “decreased locomotor activities” and the locomotor activity ([1]; control rats treated only with 0.1% ascorbic acid in saline (vehicle), oral) was “increased locomotor activities”. The peak score [2, 5] was “decreased”, the peak time [2, 5] was “decreased” and the peak time ([2]; L-DOPA + compound 1 mg/kg p.o., Day 1) was 30 min. For the same compound, the peak score ([2]; L-DOPA + compound 1 mg/kg p.o., Day 1, n = 6, mean ± standard deviation, forelimb + axial) was 5.6 ± 1.4, the peak time ([2]; L-DOPA + compound 1 mg/kg p.o., Day 9) was 40 min and the peak score ([2]; L-DOPA + compound 1 mg/kg p.o., Day 9, n = 6, mean ± standard deviation, forelimb + axial) was 4.4 ± 1.6. The peak time ([2]; L-DOPA + compound 1 mg/kg p.o., Day 23) was 20 min, the peak score ([2]; L-DOPA + compound 1 mg/kg p.o., Day 23, n = 6, mean ± standard deviation, forelimb + axial) was 1.6 ± 0.6 and the “minimum lethal dose (MLD)” value [3] was “greater than 1000 mg/kg”. For the same compound, the choice reaction times [4, 6] was “significantly decreased”, the simple reaction times [4, 6] was “significantly decreased” and the “Choice reaction times per session (mean ± s.e.m.)” value (“Choice reaction times per session” below) ([4]; session S1) was 1.71 ± 0.13 s. The “Simple reaction times per session (mean ± s.e.m.)” value (shortened to “Simple reaction times per session”) ([4]; session S1) was 3.16 ± 0.24 s, the “Choice reaction times per session” value ([4]; session S2) was 1.52 ± 0.10 s and the “Simple reaction times per session” value ([4]; session S2) was 2.49 ± 0.28 s. The “Choice reaction times per session” value ([4]; session S3) was 1.22 ± 0.12 s, the “Simple reaction times per session” value ([4]; session S3) was 1.63 ± 0.20 s and the “Choice reaction times per session” value ([4]; session S4) was 1.13 ± 0.18 s. The “Simple reaction times per session” value ([4]; session S4) was 1.73 ± 0.21 s, the “Choice reaction times per session” value ([4]; session S5) was 0.92 ± 0.09 s and the “Simple reaction times per session” value ([4]; session S5) was 1.33 ± 0.11 s.
